Values quoted from earlier work as cited in US20180080913A1, “SCREENING METHOD FOR MULTI-TARGET DRUGS AND/OR DRUG COMBINATIONS” (Wuhan Bio-links Technology Co., Ltd, priority 2015, published 2018).

System: human gastric barcinoma cell line MGC803
Details: combination of d-limonene and berberine, active ingredients of Zuo Gui Wan

SMILES	promotion of gastric cancer cell apoptosis
COc1ccc2cc3[n+](cc2c1OC)CCc1cc2c(cc1-3)OCO2 [berberine]	synergistically promote gastric cancer cell apoptosis
C=C(C)[C@H]1CC=C(C)CC1 [d-limonene]	synergistically promote gastric cancer cell apoptosis
